# Assay results taken from patent EP0082731A1, “The use of peptides as medicaments” (NOVO INDUSTRI A/S, priority 1981, dated 1983).
# What was measured:
# [1] = test system: Normoglycaemic Rats; test: Experiment D: effect on plasma glucose and plasma IRI levels in normoglycaemic rats; assay type: in vivo, Wistar rats; details: normally fed rats; for Blood glucose / Plasma IRI: i.v. injection at 0 min, equimolar doses (glucagon 1 mg/kg, glucagon(1-21) 0.77 mg/kg), mean, N = 10
# Experimental: Glucagon (-1 mg/kg) and an equimolar dosis of glucagon(1-21), i.e. 0.77 mg/kg, were injected intravenously at the beginning time (time: 0 minutes) to normally fed male Wistar rats weighing 150 g (+/- 5 g). Blood samples were taken from the orbital plexus at the times -5, 2, 5, 10, 15, 30, and 60 minutes. Blood glucose was assayed according to the hexokinase method and plasma insulin was assayed by RIA. […] Contrary to glucagon, glucagon(1-21) had no effect on these parameters. Mean blood glucose values (N = 10) are stated in Table VI below, and mean plasma IRI values (N = 10) are stated in Table VII below.
# [2] = test system: isolated perfused rat pancreas; test: IRI (insulin) release from the isolated perfused rat pancreas
# Excerpt: Such a use should be especially safe as no hypoglycaemia will occur during treatment because of the lack of IRI releasing effect in the presence of hypoglycaemia and normoglycaemia.
# Furthermore, it is stated therein that compounds of formula I show no or minor, negligible metabolic effects. […] Based thereupon it is surprising that compounds of formula I have an insulin releasing effect on animals primed with glucose corresponding to hyperglycaemia.
# [3] = test system: isolated perfused rat pancreas; details: known effect of glucagon; cited from earlier work
# [4] = test system: rats; test: Metabolic effects after administration to normally fasted and fed rats in vivo
# [5] = test system: rat free fat cells; test: Lipolytic effect on rat free fat cells in vitro; assay type: cell-based; details: compared with glucagon
# [6] = i.v., glucagon 1 mg/kg, glucagon(1-21) 0.77 mg/kg
# [7] = buffer glucose concentration 2.0 mg/ml
substance,measurement,setting,value
Glucagon [reference compound],Blood glucose,[1]; time 2 min,1.2 mg/mL
same,Plasma IRI,[1]; time 2 min,95 µU/ml
same,Blood glucose,[1]; time 5 min,1.3 mg/mL
same,Plasma IRI,[1]; time 5 min,98 µU/ml
same,Blood glucose,[1]; time 10 min,1.3 mg/mL
same,Plasma IRI,[1]; time 10 min,82 µU/ml
same,Blood glucose,[1]; time 15 min,1.4 mg/mL
same,Plasma IRI,[1]; time 15 min,67 µU/ml
same,Blood glucose,[1]; time 30 min,1.5 mg/mL
same,Plasma IRI,[1]; time 30 min,53 µU/ml
same,Blood glucose,[1]; time 60 min,1.1 mg/mL
same,Plasma IRI,[1]; time 60 min,17 µU/ml
same,Blood glucose,[1]; time -5 min,0.9 mg/mL
same,Plasma IRI,[1]; time -5 min,19 µU/ml
same,effect on blood glucose,[1]; [6],significantly increasing effect
same,effect on plasma IRI,[1]; [6],significantly increasing effect
same,insulin releasing effect,[2]; at hyperglycaemia,have this effect
same,insulin releasing effect,[2]; in the presence of normoglycaemia and hypoglycaemia,has an insulin releasing effect
same,insulin release,[3],releases insulin
des-pentapeptide-(22-26)-glucagon [des(22-26)glucagon],metabolic effects,[4],No metabolic effects have been found
same,lipolytic effect,[5],negligible
same,insulin releasing effect,[2]; at hyperglycaemia,have this effect
same,insulin releasing effect,[2]; [7],possesses an insulin releasing effect
"glucagon(1-26) (HSQGTFTSDYSKYLDSRRAQDFVQWL; Glucagon; UniProt P01275 53-78, looked up, fragment)",metabolic effects,[4],No metabolic effects have been found
same,lipolytic effect,[5],negligible
same,insulin releasing effect,[2]; at hyperglycaemia,have this effect
same,insulin releasing effect,[2]; [7],possesses an insulin releasing effect
